According to patent US6979471B1, “Composition comprising pharmaceutical/nutraceutical agent and a bio-enhancer obtained from Glycyrrhiza glabra” (Council of Scientific and Industrial Research, priority 2000, dated 2005):

Experiments:
Type in all cases: cell-based
Mycobacterium smegmatis = assay: Disc diffusion assay against Mycobacterium smegmatis
Procedure: (§1) • a) The minimum inhibitory concentration (MIC) of any antibiotic or drug molecule is determined against Escherichia coli (ATCC 10536), Bacillus subtilis (ATCC 6015) and Mycobacterium smegmatis (ATCC 14468) and Candida albicans (ATCC 10231) in broth and disc diffusion assays. • b) The antibiotics or antifungal agents at concentrations 1/10, ⅛, ⅙, ¼, ⅓, ½ and equal to MIC are added alone and in combination with the test compound at varying concentrations in broth assays to evaluate the comparative level of inhibition and similarly at varying concentrations in disc diffusion assay. • c) The combinations showing enhancement in terms of higher activity than antibiotic alone for the inhibition of bacterial growth (large inhibition zone in disc diffusion and higher killing at lower concentration in broth assay) are picked up for future testing. • d) In broth assays the activity is quantified by counting number of viable cells in a given treatment and converted in fold enhancement by the combination treatment compared to antibiotic/drug alone in the killing percentage of cells. • e) The pretreatment assay is followed to determine whether the bioenhancer which may be either an extract obtained from the plant Glycyrrhiza glabra, glycyrrhizin or glycyrrhizic acid, is required along with antibiotic to enhance its activity or even its withdrawal after treatment or prior to antibiotic treatment would benefit. […] Assay for Bio-Enhancement of Anti-Cancer Agents • a) MCF-7 (Breast cancer cell line is inoculated at a density of about 0.1×10^6 cells in MEM medium in the wells of 24 well plate. • b) The used up medium in these cultures is replaced with fresh medium after 18 hours in each well. • c) The test compound (s) is added at desired concentrations in different wells just after the medium replacement. • d) Observations are recorded on the cell count after 36 hours for which the following steps are required. • i. […] The number of viable cells is counted in 5 big squares and the reading is taken from 5 microscopic fields to determine the average. • viii. […]

[1] = test system: Mycobacterium smegmatis (ATCC 14468); assay: Broth assay for bio-enhancement of antibiotics: viable cell count, Mycobacterium smegmatis; details: Table 3
Procedure: (§2) For this, the cells are treated with the bioenhancer/compound for 4 to 8 hours and then washed free of it by centrifugation and washing in sterile water. […] 2. Assay for Bio-Enhancement of Anti-Cancer Agents • a) MCF-7 (Breast cancer cell line is inoculated at a density of about 0.1×10^6 cells in MEM medium in the wells of 24 well plate. • b) The used up medium in these cultures is replaced with fresh medium after 18 hours in each well. • c) The test compound (s) is added at desired concentrations in different wells just after the medium replacement. • d) Observations are recorded on the cell count after 36 hours for which the following steps are required. • i. The medium is removed from the wells. • ii. The wells are rinsed with 1 ml PBS (Phosphate buffer saline). • iii. To each well 500 μl of freshly prepared trypsin solution (0.1% in PBS) is added. • iv. Trypsin solution is removed after 30 seconds and the plate is gently tapped till the cells are released from the plate surface. • v. Fresh 1 ml of MEM growth medium is added and agitated with a pipette to obtain a cell suspension. • vi. 10 μl of cell suspension is taken on the haemocytometer and a cover glass is placed over the counting chamber. • vii. The number of viable cells is counted in 5 big squares and the reading is taken from 5 microscopic fields to determine the average. • viii. The cell count (titre per ml) in the original sample is then calculated as average count×10^3. Composition of Minimum Essential Medium (MEM): 100 ml
In the next step of elucidation of the enhancer action the applicants experimented with the killing activities of different antibiotics against the bacteria singly and in combination with the test compound glycyrrhizin following the method described above. These experiments are to be considered with assay for bioenhancement of the compounds glycyrrhizin/glycyrrhizic acid and licorice, as described earlier. […] In all the experiments the glycyrrhizin concentration was kept at 1 μg/ml, unless it is specifically mentioned.

[2] = test system: Escherichia coli (ATCC 10536); assay: Broth assay for bio-enhancement of antibiotics: viable cell count, Escherichia coli
Escherichia coli = assay: Disc diffusion assay against Escherichia coli
Procedure: as §1

[3] = test system: Escherichia coli, Bacillus subtilis and Mycobacterium smegmatis; assay: Bacteria grown with glycyrrhizin alone; pretreatment assay
Procedure: For this, the cells are treated with the bioenhancer/compound for 4 to 8 hours and then washed free of it by centrifugation and washing in sterile water. […] The medium is removed from the wells. • ii. The wells are rinsed with 1 ml PBS (Phosphate buffer saline). • iii. To each well 500 μl of freshly prepared trypsin solution (0.1% in PBS) is added. • iv. Trypsin solution is removed after 30 seconds and the plate is gently tapped till the cells are released from the plate surface. • v. Fresh 1 ml of MEM growth medium is added and agitated with a pipette to obtain a cell suspension. • vi. 10 μl of cell suspension is taken on the haemocytometer and a cover glass is placed over the counting chamber. • vii. […] The cell count (titre per ml) in the original sample is then calculated as average count×10^3. Composition of Minimum Essential Medium (MEM): 100 ml In the next step of elucidation of the enhancer action the applicants experimented with the killing activities of different antibiotics against the bacteria singly and in combination with the test compound glycyrrhizin following the method described above. These experiments are to be considered with assay for bioenhancement of the compounds glycyrrhizin/glycyrrhizic acid and licorice, as described earlier. […]

[4] = test system: Candida albicans (ATCC 10231); assay: Disc diffusion assay, antifungal agent against Candida albicans; details: Candida albicans, ATCC10231; glycyrrhizin 1 μg/disc alone, clotrimazole 0
Procedure: as §1

[5] = test system: MCF-7 (Breast cancer cell line); assay: Assay for bio-enhancement of anti-cancer agents: viable cell count after 36 hours; details: glycyrrhizin alone, without taxol; untreated control […] 10^−6
Procedure: as §2

For `CO[C@H]1/C=C/O[C@@]2(C)Oc3c(C)c(O)c4c(O)c(c(/C=N/N5CCN(C)CC5)c(O)c4c3C2=O)NC(=O)/C(C)=C\C=C\[C@H](C)[C@H](O)[C@@H](C)[C@@H](O)[C@@H](C)[C@H](OC(C)=O)[C@@H]1C` [Rifampicin], which zone of inhibition at 0.4 µg/disc (Mycobacterium smegmatis; Mycolicibacterium smegmatis, read-out: Net zone of inhibition) is on record?
The zone of inhibition at 0.4 µg/disc was 3 mm.

And the “Net zone of inhibition” value (Mycobacterium smegmatis; rifampicin 0.4 μg/disc + glycyrrhizic acid 4 μg/disc)?
The value was 4 mm.

And the “Survival fraction of viable cells upon treatment with antibiotic alone (a)” value (from here on “Survival fraction … (a)”) ([1]; antibiotic 0.5 μg/ml)?
Its value is 0.56 × 10^−4.

And the “Survival fraction of viable cells upon treatment with antibiotic- glycyrrhizin combination (b)” value ([1]; antibiotic 0.5 μg/ml + glycyrrhizin 1 μg/ml)?
The value was 0.086 × 10^−4.

What about the “*Folds enhancement in antibiotic activity (a/b)” value (from here on “*Folds enhancement”) ([1]; antibiotic 0.5 μg/ml, glycyrrhizin 1 μg/ml) of the same compound?
Its value is 6.5 folds.

What about the “Survival fraction … (a)” value ([2]; Table 1, antibiotic 10 μg/ml) of the same compound?
Its value is 0.42.

What about the “Survival fraction of viable cells upon treatment with antibiotic- glycyrrhizin combination (b)” value ([2]; Table 1, antibiotic 10 μg/ml + glycyrrhizin 1 μg/ml) of the same compound?
Its value is 0.11.

What about the “*Folds enhancement” value ([2]; Table 1, antibiotic 10 μg/ml, glycyrrhizin 1 μg/ml) of the same compound?
The value was 3.8 folds.

What about the “Survival fraction … (a)” value ([2]; Table 1, antibiotic 20 μg/ml) of the same compound?
Its value is 0.28.

What about the “Survival fraction of viable cells upon treatment with antibiotic- glycyrrhizin combination (b)” value ([2]; Table 1, antibiotic 20 μg/ml + glycyrrhizin 1 μg/ml) of the same compound?
The value was 0.02.

What about the “*Folds enhancement” value ([2]; Table 1, antibiotic 20 μg/ml, glycyrrhizin 1 μg/ml) of the same compound?
Its value is 14.0 folds.

And the “Survival fraction of viable cells upon treatment with antibiotic glycyrrhizic acid combination (b)” value ([2]; Table 7, antibiotic 20 μg/ml + glycyrrhizic acid)?
The value was 0.281.

And the “Survival fraction of viable cells upon treatment with antibiotic glycyrrhizic acid combination (b)” value ([2]; Table 7, antibiotic 20 μg/ml + glycyrrhizic acid, listed as rifampicin)?
Its value is “about 0.281”.

And the “*Folds enhancement” value ([2]; Table 7, antibiotic 20 μg/ml, glycyrrhizic acid)?
The value was 2.03 folds.

And the “Survival fraction … (a)” value ([2]; Table 10, antibiotic 10 μg/ml)?
The value was 0.420.

And the “Survival fraction of viable cells upon treatment with antibiotic glycyrrhizic acid combination (b)” value ([2]; Table 10, antibiotic 10 μg/ml + licorice 25 μg/ml)?
The value was 0.135.

What about the “*Folds enhancement” value ([2]; Table 10, antibiotic 10 μg/ml, licorice 25 μg/ml) of the same compound?
Its value is 3.10 folds.

What about the zone of inhibition at 500 µg/disc (Escherichia coli; Escherichia coli, read-out: Net zone of inhibition) of the same compound?
Its zone of inhibition at 500 µg/disc is 2 mm.

And the “Net zone of inhibition” value (Escherichia coli; rifampicin 500 μg/disc + glycyrrhizic acid 4 μg/disc)?
Its value is 3 mm.

Which “Enhancement of antibiotic potency after pretreatment of bacterial cells” value ([3]; cells pretreated with glycyrrhizin for 4–8 hours, washed free, then treated with antibiotics) does the source give for `CC1(C)[C@@H](O[C@H]2O[C@H](C(=O)O)[C@@H](O)[C@H](O)[C@H]2O[C@@H]2O[C@H](C(=O)O)[C@@H](O)[C@H](O)[C@H]2O)CC[C@]2(C)[C@H]3C(=O)C=C4[C@@H]5C[C@@](C)(C(=O)O)CC[C@]5(C)CC[C@@]4(C)[C@]3(C)CC[C@@H]12` [Glycyrrhizin] here?
Its value is “the same results were observed”.

What about the “Killing of bacteria grown in presence of the compound as such” value ([3]; glycyrrhizin alone, no antibiotic) of the same compound?
The value was “no significant killing”.

What about the zone of inhibition at 1 µg/disc [4] of the same compound?
The zone of inhibition at 1 µg/disc was 0 mm.

What about the “Final titre of viable cells, without taxol, control (glycyrrhizin)” value [5] of the same compound?
The value was 0.12 × 10^−6 per ml.
